From publication PMC6264179, “Triterpenoids from the Roots of Sanguisorba tenuifolia var. Alba” (Molecules, 2011)

Target: α-Glucosidase (EC.3.2.1.20)
Experiment: α-Glucosidase inhibition assay (p-nitrophenyl-α-D-glucopyranoside substrate, absorbance at 405 nm)
Type: biochemical
Settings: in vitro; pH 6.8 phosphate buffer, 37 °C, 15 min; acarbose positive control; read-out: IC50 (mM ± SEM, mM), α-glucosidase inhibitory activity
Procedure: Open column chromatography (CC) was carried out using silica gel (200-300 mesh, Qingdao Marine Chemical Co., Qingdao, China) or octadecyl silica gel (ODS, 25-40 μm, Fuji) as stationary phases. TLC employed precoated silica gel plates (5-7 μm, Qingdao Marine). Preparative HPLC was carried out on a Waters 600 instument equipped with a Waters UV-2487 detector. A Waters Sunfire prep C18 OBD (19 × 250 mm i.d.) column was used for this purpose. The IR spectra were recorded as KBr pellets on a Jasco 302-A spectrometer. Optical rotation was recorded on a Jasco P-2000 polarimeter. HRESIMS were measured on a FTMS-7 instrument (Bruker Daltonics). Melting points were determined on a Gallenkemp apparatus and are uncorrected. The ^1H-, ^13C- and 2D (^1H-^1H COSY, HSQC, HMBC, NOESY) NMR spectra were recorded on a Bruker AMX-400 spectrometer using standard pulse sequences. Chemical shifts are reported in ppm (δ), and scalar coupling are reported in Hz. GC analyses were carried out using a Fuli 9790 instrument equipped with a DM-5 column (0.25 μm, 30 m × 0.25 mm, Dikma, China). α-Glucosidase (EC.3.2.1.20) from Saccharomyces sp. was purchased from Wako Pure Chemical Indutries Ltd. (Wako 076-02841). Other reagents were purchased from various commercial sources.
α-Glucosidase (EC.3.2.1.20) enzyme inhibition assay has been performed according to the literature. α-Glucosidase (25 μL, 0.2 U/mL), various concentrations of samples (25 μL), and 67 mM phosphate buffer (pH 6.8, 175 μL) were mixed at room temperature for 10 min. Reactions were initiated by the addition of 23.2 mM p-nitrophenyl-α-D-glucopyranoside (25 μL). The reaction mixtures were incubated at 37 °C for 15 min in a final volume of 250 μL, and then 1 M Na2CO3 (50 μL) was added to the incubation solution to stop the reaction. The activities of glucosidase were detected in a 96-well plate, and the absorbance was read at 405 nm by a microplate spectrophotometer (Spectra Max, Molecular Devices, USA). The negative control was prepared by adding phosphate buffer instead of the sample in the same way as the test. […] The blank was prepared by adding phosphate buffer instead of α-glucosidase using the same method. The inhibition rates (%) were calculated from the following formula:
[(ODnegative control− ODblank) − (ODtest− ODtest blank)] / ([…]− ODblank) × 100%

IC50 [mM] | Compound
3.1 ± 0.24 | C[C@@H]1CC[C@]2(C(=O)O[C@@H]3O[C@H](CO)[C@@H](O)[C@H](O)[C@H]3O)CC[C@]3(C)C(=CCC4[C@@]5(C)C[C@@H](O)[C@@H](O)C(C)(C)C5CC[C@]43C)C2[C@@]1(C)O (some centres unmarked) [Compound 9, kaji-ichigoside Fl]
1.23 ± 0.09 | C[C@@H]1CC[C@]2(C(=O)O)CC[C@]3(C)C(=CCC4[C@@]5(C)C[C@@H](O)C(=O)C(C)(C)C5CC[C@]43C)C2[C@@]1(C)O (stereo partly drawn) [Compound 5, 2α,19α-dihydroxy-3-oxo-12-ursen-28-oic acid]
1.84 ± 0.12 | C[C@@H]1CC[C@]2(C(=O)O)CC[C@]3(C)C(=CC[C@@H]4[C@@]5(C)CC[C@H](O)C(C)(C)[C@@H]5CC[C@]43C)[C@@H]2[C@]1(C)O [Compound 15, pomolic acid]
3.62 ± 0.21 | CC1CCC2(C(=O)OC3OC(CO)C(O)C(O)C3O)CCC3(C)C(=CCC4C5(C)CCC(OC6OCC(O)C(O)C6O)C(C)(C)C5CCC43C)C2C1(C)O (centres unmarked) [Compound 13, ziyu-glycoside I]
0.67 ± 0.09 | C[C@@H]1CC[C@]2(C(=O)O)CC[C@]3(C)C(=CC[C@@H]4[C@@]5(C)C[C@@H](O)[C@@H](O)C(C)(C)[C@@H]5CC[C@]43C)[C@@H]2[C@]1(C)O [Compound 8, euscaphic acid]
1.88 ± 0.28 | CC1(C)CCC2(C(=O)OC3OC(CO)C(O)C(O)C3O)CCC3(C)C(=CCC4C5(C)CC(=O)C(O)C(C)(C)C5CCC43C)C2C1O [Compound 1, 2-oxo-3β,19α-dihydroxyolean-12-en-28-oic acid β-D-gluco-pyranosyl ester]
2.22 ± 0.06 | C[C@@H]1CC[C@]2(C(=O)O[C@@H]3O[C@H](CO)[C@@H](O)[C@H](O)[C@H]3O)CC[C@]3(C)C(=CCC4[C@@]5(C)CC(=O)[C@H](O)C(C)(C)C5CC[C@]43C)C2[C@@]1(C)O (stereo partly drawn) [Compound 3, 2-oxopomolic acid β-D-glucopyranoside]
1.56 ± 0.04 | CC1CCC2(C(=O)OC3OC(CO)C(O)C(O)C3O)CCC3(C)C(=CCC4C5(C)CC(O)C(=O)C(C)(C)C5CCC43C)C2C1(C)O [Compound 4, 2α,19α-dihydroxy-3-oxo-12-ursen-28-oic acid β-D-glucopyranosyl ester]
1.35 ± 0.04 | C[C@@H]1CC[C@]2(C(=O)O)CC[C@]3(C)C(=CCC4[C@@]5(C)CC(=O)[C@H](O)C(C)(C)C5CC[C@]43C)C2[C@@]1(C)O (some centres unmarked) [Compound 2, 2-oxopomolic acid]
2.01 ± 0.06 | CC1(C)C(=O)[C@H](O)C[C@@]2(C)C1CC[C@]1(C)C2CC=C2C3[C@@H](O)C(C)(C)CC[C@]3(C(=O)O[C@@H]3O[C@H](CO)[C@@H](O)[C@H](O)[C@H]3O)CC[C@]21C (stereo partly drawn) [Compound 6, 2α,19α-dihydroxy-3-oxo-olean-12-en-28-oic acid β-D-glucopyranosyl ester]
3.28 ± 0.08 | C[C@@H]1CC[C@]2(C(=O)O[C@@H]3O[C@H](CO)[C@@H](O)[C@H](O)[C@H]3O)CC[C@]3(C)C(=CCC4[C@@]5(C)C[C@@H](O)[C@H](O)C(C)(C)C5CC[C@]43C)C2[C@@]1(C)O (some centres unmarked) [Compound 7, rosamutin]
0.62 ± 0.06 | C[C@@H]1CC[C@]2(C(=O)O)CC[C@]3(C)C(=CCC4[C@@]5(C)CC[C@H](OC(=O)C=Cc6ccc(O)cc6)C(C)(C)C5CC[C@]43C)C2[C@@H]1C (some centres unmarked) [Compound 12, p-coumaroylursolic acid]
2.87 ± 0.06 | C=C1C(C)CCC2(C(=O)OC3OC(CO)C(O)C(O)C3O)CCC3(C)C(=CCC4C5(C)CCC(OC6OCC(O)C(O)C6O)C(C)(C)C5CCC43C)C12 [Compound 14, 3β-[(α-L-arabinopyranosyl)oxy] urs-12,19(29)-dien-28-oic acid 28-β-D-glucopyranosyl ester]

Compound | IC50 [mM]
CC1(C)CC[C@]2(C(=O)O[C@@H]3O[C@H](CO)[C@@H](O)[C@H](O)[C@H]3O)CC[C@]3(C)C(=CCC4[C@@]5(C)C[C@@H](O)[C@H](O)C(C)(C)C5CC[C@]43C)C2[C@H]1O (some centres unmarked) [Compound 10, 24-deoxysericoside] | 3.52 ± 0.16
